Common to all, as to test: Substrate-binding spectral titration (type I, ΔA388-A423)
The target of one assay is T1, P450 17A1 E305G variant (Homo sapiens, UniProt P05093, E305G).
T1 sequence (P05093 1-508 E305G): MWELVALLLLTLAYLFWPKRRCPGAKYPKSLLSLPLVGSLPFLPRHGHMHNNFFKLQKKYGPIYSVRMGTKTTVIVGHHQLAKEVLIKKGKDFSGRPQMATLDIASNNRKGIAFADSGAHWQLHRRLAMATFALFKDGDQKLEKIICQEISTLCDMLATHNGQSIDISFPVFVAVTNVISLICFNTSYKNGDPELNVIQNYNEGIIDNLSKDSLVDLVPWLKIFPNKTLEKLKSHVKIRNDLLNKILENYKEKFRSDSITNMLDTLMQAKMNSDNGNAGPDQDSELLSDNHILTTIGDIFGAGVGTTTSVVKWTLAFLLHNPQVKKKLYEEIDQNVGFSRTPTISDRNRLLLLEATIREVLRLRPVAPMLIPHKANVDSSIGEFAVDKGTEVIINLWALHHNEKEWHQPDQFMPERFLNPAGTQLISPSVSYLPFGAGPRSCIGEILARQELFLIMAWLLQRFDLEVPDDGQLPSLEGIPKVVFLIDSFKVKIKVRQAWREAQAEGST
The procedure:
(§1) The purified enzymes were diluted in 100 mM potassium phosphate buffer (pH 7.4) and divided in two 1.0-ml glass cuvettes. Spectra (350–500 nm) were recorded using an OLIS-DW2 spectrophotometer (On-Line Instrument Systems) with subsequent additions of the substrate. Differences in the absorbance between the wavelength maximum and minimum were plotted versus the substrate concentration ([44]). Kd values were calculated using nonlinear regression analysis in GraphPad Prism software (GraphPad) and the quadratic equation: Y=B+A/2E[(Kd+E+X)−(Kd+E+X)^2−4EX], set in Prism as: Y = B + (A/2) ∗ (1/E) ∗ ((Kd + E + X)-sqrt((Kd + E + X)^ˆ2 - (4 ∗ E ∗ X))).
(§2) Figure S2. […] Increasing concentrations of substrates were added to the sample and reference cuvettes in each case.

The target of a further assay is T2, P450 17A1 R347H variant (Homo sapiens, UniProt P05093, R347H).
T2 sequence (P05093 1-508 R347H): T1 sequence (P05093 1-508 E305G) with G305E, R347H
The procedure:
as §1, §2

A further assay deals with T3, WT P450 17A1 (Homo sapiens, UniProt P05093).
T3 sequence (P05093 1-508): T1 sequence (P05093 1-508 E305G) with G305E
The procedure:
as §1, §2

Another assay has as its target T4, P450 17A1 R358Q variant (Homo sapiens, UniProt P05093, R358Q).
T4 sequence (P05093 1-508 R358Q): T1 sequence (P05093 1-508 E305G) with G305E, R358Q
The procedure:
as §1, §2

[1] abbreviates: Kd of P450 17A1·substrate complex, WT, P450 1.0 µM, quadratic fit.

This note sets out measurements from article PMC8080067, “Tight binding of cytochrome b5 to cytochrome P450 17A1 is a critical feature of stimulation of C21 steroid lyase activity and androgen synthesis” (The Journal of Biological Chemistry, 2021).

Positions count from the first letter of the chain named. “And” between values parts separate entries of the source, which are not always exact repeats. Equal entries are not always repeated. Where two headings read alike, the source gives them in different places.

As for `CC(=O)[C@H]1CC[C@H]2[C@@H]3CCC4=CC(=O)CC[C@]4(C)[C@H]3CC[C@]12C` [Progesterone], the Kd is 170 ± 80 nM at P450 17A1 E305G variant; 230 ± 100 nM at P450 17A1 R347H variant; ~65 nM and 65 nM at WT P450 17A1 (setting [1]); 260 ± 120 nM on P450 17A1 R358Q variant.

On to `CC(=O)[C@@]1(O)CCC2C3CC=C4C[C@@H](O)CC[C@]4(C)C3CC[C@@]21C` (stereo partly drawn) [17α-OH pregnenolone], for which the Kd was found to be 410 ± 180 nM at P450 17A1 E305G variant, 220 ± 100 nM at P450 17A1 R347H variant, 110 ± 50 nM at WT P450 17A1 and 260 ± 120 nM at P450 17A1 R358Q variant.

Take `CC(=O)C1CCC2C3CC=C4C[C@@H](O)CC[C@]4(C)C3CC[C@]12C` (stereo partly drawn) [Pregnenolone]: the Kd was 260 ± 80 nM on P450 17A1 E305G variant, 120 ± 50 nM at P450 17A1 R347H variant, 140 ± 60 nM at WT P450 17A1 (setting [1]) and 150 ± 60 nM on P450 17A1 R358Q variant.
